The results in this text go back to patent US5250424A, “Processes for preparing novel squalene synthetase inhibitors” (Merck & Co., Inc., priority 1992, dated 1993).

Molecules are shown by their SMILES.

This assay relates to squalene synthetase. Description: Squalene synthetase assay (rat liver microsomes, [4-14C]farnesyl pyrophosphate). As to conditions: C18 HPLC fractions of Curvularia lunata (MF5573 or MF5572) fermentation extract, shown to contain Compound (I). The format is biochemical.

Procedure: Male, Charles River CD rats (120 to 150 g) were fed a diet containing 0.1% lovastatin for 4 days. The livers from these rats were homogenized in 5 volumes (mL/g) of ice cold 50 mm HEPES (4-(2-hydroxyethyl)-1-piperazine-ethanesulfonic acid), 5 mm EDTA(ethylenediaminetetraacetic acid) pH 7.5 with a Potter-Elvehjem type tissue grinder. The homogenate was centrifuged twice at 20,000×g for 15 min. at 4° C., discarding the pellet each time. The supernatant was then centrifuged at 100,000×g for 1 hr. at 4° C. The resulting microsomal pellet was resuspended in a volume of the above homogenizing buffer equal to one-fifth the volume of the original homogenate. This microsomal preparation has a protein concentration of about 7 mg/ml. The microsomal suspensions were stored in aliquots at -70° C. Squalene synthetase activity in these aliquots is stable for at least several months.
SQUALENE SYNTHETASE ASSAY
Reactions were performed in 16×125 mm screw cap test tubes. A batch assay mix was prepared from the following solution:
This assay mix was degassed under a vacuum and flushed with N2. […] Ten mL of scintillation fluid was added to the heptane solution and radio-activity was determined by liquid scintillation counting.
Percent inhibition is calculated by the formula: [formula]

Consider `C=C(CCC12OC(C(=O)O)C(O)(C(=O)O)C(C(=O)O)(O1)C(OC(=O)/C=C/C(C)CC(C)CC)C2O)C(OC(C)=O)C(C)Cc1ccccc1` (stereo not shown) [Compound (I)], for which the “activity in the squalene synthetase assay” value is on record as “active”.
